Test results: ChEMBL document CHEMBL1156865, “Chemical delivery system of metaiodobenzylguanidine (MIBG) to the central nervous system” (J Med Chem, 2010)

Tests used:
[1] = Stability in Sprague-Dawley rat blood at 10 MBq assessed as radioactive compound recovery; type: ADME, tissue-based; settings: whole blood, read-out: Stability
[2] = Stability in Sprague-Dawley rat brain assessed as unchanged parent compound level at 15 to 120 MBq, iv after 3 mins; type: ADME, organism-based; settings: read-out: Stability
[3] = Stability in Sprague-Dawley rat brain assessed as unchanged parent compound level at 15 to 120 MBq, iv after 60 mins; type: ADME, organism-based; settings: read-out: Stability
Brain [4] = test: Stability in Sprague-Dawley rat brain assessed as polar radioactive metabolite level at 15 to 120 MBq, iv after 3 mins; type: ADME, organism-based; settings: in vivo, 0.05 h
Brain [5] = test: Stability in Sprague-Dawley rat brain assessed as polar radioactive metabolite level at 15 to 120 MBq, iv after 60 mins; type: ADME, organism-based; settings: in vivo, 1 h
Brain [6] = test: Drug uptake in Sprague-Dawley rat brain at 15 to 120 MBq, iv after 3 mins; type: ADME, organism-based; settings: in vivo, 0.05 h
Brain [7] = test: Drug uptake in Sprague-Dawley rat brain at 15 to 120 MBq, iv after 60 mins; type: ADME, organism-based; settings: in vivo, 1 h

remaining at 10 MBq [1]: > 90% | remaining at 0.05 h [2]: 96% | remaining at 1 h [3]: 59% | Activity (Brain [4]): 4% | Activity (Brain [5]): 41% | Drug uptake (Brain [6]): 0.1 % ID/g | Drug uptake (Brain [7]): 0.06 % ID/g
Compound: [11CH3]N1C=C(C(=O)NC(=N)NCc2cccc(I)c2)Cc2ccccc21
